Measurements: patent US12012403B2, “Aryl sulfonyl compounds as CCR6 inhibitors” (CHEMOCENTRYX, INC., priority 2021, dated 2024)

Target: T1, human CCR6 (Homo sapiens, UniProt P51684)
T1 construct: expressed in transfected cells; host or cells: Ba/F3 cells (murine pro-B line), hCCR6-transfected, CMV promoter, sodium butyrate induction
T1 sequence (P51684 1-374): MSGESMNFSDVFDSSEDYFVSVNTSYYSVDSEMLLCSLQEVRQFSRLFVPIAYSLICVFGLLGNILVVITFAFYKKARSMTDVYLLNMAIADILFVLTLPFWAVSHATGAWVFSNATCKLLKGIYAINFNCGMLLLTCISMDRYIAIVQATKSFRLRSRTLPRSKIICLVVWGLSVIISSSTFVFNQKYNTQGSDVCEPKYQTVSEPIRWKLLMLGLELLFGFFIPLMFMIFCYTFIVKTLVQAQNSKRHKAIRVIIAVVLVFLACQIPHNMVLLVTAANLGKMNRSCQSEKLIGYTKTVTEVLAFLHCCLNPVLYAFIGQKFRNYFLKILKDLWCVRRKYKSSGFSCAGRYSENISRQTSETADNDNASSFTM
Assay: Migration (chemotaxis) assay, hCCR6-transfected Ba/F3 cells toward CCL20
Format: cell-based
Details: hCCR6-transfected Ba/F3 cells in human serum; recombinant human CCL20 10 nM; 37° C. 45 minutes; read-out: Potency (IC50 value in the migration assay)
Text: A chemotaxis assay can be used to determine the efficacy of potential receptor antagonists at blocking the migration mediated through chemokine receptors, such as CCR6. This assay is routinely performed using the ChemoTX® microchamber system with a 5-μm pore-sized polycarbonate membrane. Chemokine receptor-expressing cells are required for such an assay. In this case, Ba/F3 cells (Palacios et al., Nature, 309:126, 1984) transfected with the gene for human CCR6 under control of the CMV promotor were used. To begin such an assay, hCCR6-transfected Ba/F3 cells are first grown for 24 hr in medium supplemented with sodium butyrate, which increases CCR6 transcription via the CMV promotor. The prepared Ba/F3 cells, are collected by centrifugation at 400×g at room temperature, then suspended at 4 million/ml in human serum. The compound being tested is serially diluted from a maximum final concentration of 10 μM (or an equivalent volume of its solvent (DMSO)) and is then added to the cell/serum mixture. Separately, recombinant human CCL20 (MIP-3α/LARC) at its EC50 concentration (10 nM) is placed in the lower wells of the ChemoTX® plate. The 5-μm (pore size) polycarbonate membrane is placed onto the plate, and 20 μL of the cell/compound mixture is transferred onto each well of the membrane. The plates are incubated at 37° C. for 45 minutes, after which the polycarbonate membranes are removed and 5 μl of the DNA-intercalating dye CyQUANT (Invitrogen, Carlsbad, CA) is added to the lower wells. The amount of fluorescence, corresponding to the number of migrated cells, is measured using a Spectrafluor Plus plate reader (TECAN, San Jose, CA).

First: Nc1n[nH]c2ncc(-c3ccc(S(=O)(=O)N4CCC(Nc5ccc(C(F)(F)F)cn5)CC4)cc3)nc12 [Example 1.017]
Second: Nc1cc2cc(-c3ccc(S(=O)(=O)N4CCC(Nc5ccc(C(F)(F)F)cn5)CC4)cc3)cnc2o1 [Example 1.081]
The IC50 of the first is higher: 0.005 to 0.1 µM for the first, less than 0.005 µM for the second.

Compared with `NC(=O)CC1CCN(c2ccc(S(=O)(=O)N3CCC(Nc4ccc(C(F)(F)F)cn4)CC3)cc2)CC1` [Example 1.155], `O=S(=O)(c1ccc(N2CCC(CO)CC2)cc1)N1CCC(Nc2ccc(C(F)(F)F)cn2)CC1` [Example 1.188] is higher in IC50: less than 0.005 µM for the first, 0.005 to 0.1 µM for the second. The first is the more potent here.

`N#Cc1n[nH]c2ccc(-c3ccc(S(=O)(=O)[C@H]4CC[C@H](Nc5ccc(C(F)(F)F)cn5)CC4)cc3)cc12` [Example 1.072] and `N#Cc1n[nH]c2ccc(-c3ccc(S(=O)(=O)N4CCC(Nc5ccc(C(F)(F)F)cn5)CC4)cc3)cc12` [Example 1.055] cannot be ordered by IC50: less than 0.005 µM for the first, less than 0.005 µM for the second.

Compared with `CC1(CC(N)=O)CCN(c2ccc(S(=O)(=O)N3CCC(Nc4ccc(C(F)(F)F)cn4)CC3)cc2)CC1` [Example 1.136], `NC(=O)CC1CCCN(c2ccc(S(=O)(=O)N3CCC(Nc4ccc(C(F)(F)F)cn4)CC3)cc2)C1` (stereo not shown) [Example 1.138] is higher in IC50: 0.005 to 0.1 µM for the first, 0.1 to 10 µM for the second. The first is the more potent here.

Compared with `O=C1Cc2ccc(-c3ccc(S(=O)(=O)N4CCC(Nc5ccc(C(F)(F)F)cn5)CC4)cc3)cc2CN1` [Example 1.007], `O=C1NCc2ccc(-c3ccc(S(=O)(=O)N4CCC(Nc5ccc(C(F)(F)F)cn5)CC4)cc3)cc21` [Example 1.093] is lower in IC50: 0.005 to 0.1 µM for the first, less than 0.005 µM for the second.

Compared with `N#Cc1ccc2nc(-c3ccc(S(=O)(=O)N4CCC(Nc5ccc(C(F)(F)F)cn5)CC4)cc3)sc2c1` [Example 1.060], `Nc1nc2ccc(-c3ccc(S(=O)(=O)N4CCC(Nc5ccc(C(F)(F)F)cn5)CC4)cc3)cc2o1` [Example 1.086] is lower in IC50: 0.005 to 0.1 µM for the first, less than 0.005 µM for the second. The second is the more potent here.

`NC(=O)N1C[C@@H]2CN(c3ccc(S(=O)(=O)N4CCC(Nc5ccc(C(F)(F)F)cn5)CC4)cc3)C[C@@H]2C1` [Example 1.176] and `NC(=O)N1CC(C2CN(c3ccc(S(=O)(=O)N4CCC(Nc5ccc(C(F)(F)F)cn5)CC4)cc3)C2)C1` [Example 1.145] fall in the same range of IC50: 0.005 to 0.1 µM for the first, 0.005 to 0.1 µM for the second.

`O=S(=O)(c1ccc(N2CCC(c3cnc[nH]3)CC2)cc1)N1CCC(Nc2ccc(C(F)(F)F)cn2)CC1` [Example 1.130] and `NCCC1CCN(c2ccc(S(=O)(=O)N3CCC(Nc4ccc(C(F)(F)F)cn4)CC3)cc2)CC1` [Example 1.132] fall in the same range of IC50: 0.1 to 10 µM for the first, 0.1 to 10 µM for the second.

`CC(=O)N1CCCC(c2ccc(S(=O)(=O)N3CCC(Nc4ccc(C(F)(F)F)cn4)CC3)cc2)C1` (stereo not shown) [Example 1.183] and `NC(=O)N1CCCC(c2ccc(S(=O)(=O)N3CCC(Nc4ccc(C(F)(F)F)cn4)CC3)cc2)C1` (stereo not shown) [Example 1.215] fall in the same range of IC50: 0.005 to 0.1 µM for the first, 0.005 to 0.1 µM for the second.

`COc1n[nH]c2ccc(-c3ccc(S(=O)(=O)N4CCC(Nc5ccc(C(F)(F)F)cn5)CC4)cc3)cc12` [Example 1.077] and `O=S(=O)(c1ccc(-c2ccc3[nH]ncc3c2)cc1)N1CCC(Nc2ccc(C(F)(F)F)cn2)CC1` [Example 1.096] fall in the same range of IC50: 0.005 to 0.1 µM for the first, 0.005 to 0.1 µM for the second.

Compared with `O=C1NC(=O)N2CCN(c3ccc(S(=O)(=O)N4CCC(Nc5ccc(C(F)(F)F)cn5)CC4)cc3)CC12` (stereo not shown) [Example 1.177], `O=C1CN(c2ccc(S(=O)(=O)N3CCC(Nc4ccc(C(F)(F)F)cn4)CC3)cc2)CCN1` [Example 1.211] is higher in IC50: 0.005 to 0.1 µM for the first, 0.1 to 10 µM for the second. The first is the more potent here.

Compared with `N#Cc1c(N)[nH]c2ccc(-c3ccc(S(=O)(=O)N4CCC(Nc5ccc(C(F)(F)F)cn5)CC4)cc3)cc12` [Example 1.099], `NC(=O)c1c[nH]c2ccc(-c3ccc(S(=O)(=O)N4CCC(Nc5ccc(C(F)(F)F)cn5)CC4)cc3)cc12` [Example 1.080] is higher in IC50: less than 0.005 µM for the first, 0.005 to 0.1 µM for the second. The first is the more potent here.

Compared with `O=C1Nc2ccc(-c3ccc(S(=O)(=O)N4CCC(Nc5ccc(C(F)(F)F)cn5)CC4)cc3)cc2C12CCNCC2` [Example 1.028], `O=C1Nc2ccc(-c3ccc(S(=O)(=O)N4CCC(Nc5ccc(C(F)(F)F)cn5)CC4)cc3)cc2C12CCOCC2` [Example 1.036] is lower in IC50: 0.005 to 0.1 µM for the first, less than 0.005 µM for the second. The second is the more potent here.

Compared with `CC(C)(C)[Si](C)(C)OCCN1Cc2ccc(-c3ccc(S(=O)(=O)N4CCC(Nc5ccc(C(F)(F)F)cn5)CC4)cc3)cc2C1=O` [Example 1.038], `O=C1c2cc(-c3ccc(S(=O)(=O)N4CCC(Nc5ccc(C(F)(F)F)cn5)CC4)cc3)ccc2CN1CCO` [Example 1.033] is lower in IC50: 0.005 to 0.1 µM for the first, less than 0.005 µM for the second. The second is the more potent here.

First: NC(=O)c1ccc(-c2ccc(S(=O)(=O)N3CCC(Nc4ccc(C(F)(F)F)cn4)CC3)cc2)c2cc[nH]c12 [Example 1.061]
Second: O=S(=O)(c1ccc(-c2ccc3[nH]ccc3c2)cc1)N1CCC(Nc2ccc(C(F)(F)F)cn2)CC1 [Example 1.119]
The IC50 of the first is lower: 0.005 to 0.1 µM for the first, 0.1 to 10 µM for the second.

`O=S1(=O)CCN(c2ccc(S(=O)(=O)N3CCC(Nc4ccc(C(F)(F)F)cn4)CC3)cc2)CC1` [Example 1.231] and `CN1CCN(c2ccc(S(=O)(=O)N3CCC(Nc4ccc(C(F)(F)F)cn4)CC3)cc2)CC1` [Example 1.232] fall in the same range of IC50: 0.1 to 10 µM for the first, 0.1 to 10 µM for the second.

`O=c1[nH]c2ccc(-c3ccc(S(=O)(=O)N4CCC(Nc5ccc(C(F)(F)F)cn5)CC4)cc3)cc2[nH]1` [Example 1.115] and `O=c1[nH]c2ccc(-c3ccc(S(=O)(=O)N4CCC(Nc5ccc(C(F)(F)F)cn5)CC4)cc3)cc2n1C1COC1` [Example 1.041] fall in the same range of IC50: 0.005 to 0.1 µM for the first, 0.005 to 0.1 µM for the second.

First: NC(=O)NCCC1CCN(c2ccc(S(=O)(=O)N3CCC(Nc4ccc(C(F)(F)F)cn4)CC3)cc2)CC1 [Example 1.125]
Second: CC(=O)N[C@H]1CCN(c2ccc(S(=O)(=O)N3CCC(Nc4ccc(C(F)(F)F)cn4)CC3)cc2)C1 [Example 1.192]
The IC50 of the first is lower: 0.005 to 0.1 µM for the first, 0.1 to 10 µM for the second.

`O=S(=O)(c1ccc(N2CCN3C[C@H](O)C[C@H]3C2)cc1)N1CCC(Nc2ccc(C(F)(F)F)cn2)CC1` (racemic) [Example 1.178] and `NC(=O)C1CN(c2ccc(S(=O)(=O)N3CCC(Nc4ccc(C(F)(F)F)cn4)CC3)cc2)C1` [Example 1.196] fall in the same range of IC50: 0.1 to 10 µM for the first, 0.1 to 10 µM for the second.

`CC(C)(C)OC(=O)N[C@H]1CCCN(c2ccc(S(=O)(=O)N3CCC(Nc4ccc(C(F)(F)F)cn4)CC3)cc2)C1` [Example 1.219] and `CC(C)(C)OC(=O)N[C@@H]1CCN(c2ccc(S(=O)(=O)N3CCC(Nc4ccc(C(F)(F)F)cn4)CC3)cc2)C1` [Example 1.212] fall in the same range of IC50: 0.1 to 10 µM for the first, 0.1 to 10 µM for the second.

First: N#Cc1c[nH]c2ccc(-c3ccc([S@](=N)(=O)N4CCC(Nc5ccc(C(F)(F)F)cn5)CC4)cc3)cc12 [Example 1.103]
Second: N#Cc1c[nH]c2ncc(-c3ccc(S(=O)(=O)N4CCC(Nc5ccc(C(F)(F)F)cn5)CC4)cc3)cc12 [Example 1.088]
The IC50 of the first is higher: 0.005 to 0.1 µM for the first, less than 0.005 µM for the second.

`CC(C)(C)OC(=O)NCC1CN(c2ccc(S(=O)(=O)N3CCC(Nc4ccc(C(F)(F)F)cn4)CC3)cc2)C1` [Example 1.143] and `CC(C)(C)OC(=O)N1CCC=C(c2ccc(S(=O)(=O)N3CCC(Nc4ccc(C(F)(F)F)cn4)CC3)cc2)C1` [Example 1.233] fall in the same range of IC50: 0.005 to 0.1 µM for the first, 0.005 to 0.1 µM for the second.

Compared with `N#Cc1cn(CCN)c2ncc(-c3ccc(S(=O)(=O)N4CCC(Nc5ccc(C(F)(F)F)cn5)CC4)cc3)cc12` [Example 1.013], `Cn1nc(N)c2cc(-c3ccc(S(=O)(=O)N4CCC(Nc5ccc(C(F)(F)F)cn5)CC4)cc3)ccc21` [Example 1.046] is lower in IC50: 0.005 to 0.1 µM for the first, less than 0.005 µM for the second. The second is the more potent here.

First: COc1cc(-c2ccc(S(=O)(=O)N3CCC(Nc4ccc(C(F)(F)F)cn4)CC3)cc2)cc2c1NC(=O)C2 [Example 1.045]
Second: O=C1Cc2cc(-c3ccc(S(=O)(=O)N4CCC(Nc5ccc(C(F)(F)F)cn5)CC4)cc3)cnc2N1 [Example 1.073]
The IC50 of the first is higher: 0.005 to 0.1 µM for the first, less than 0.005 µM for the second. The second is the more potent here.

First: NC(=O)N1Cc2ccc(-c3ccc(S(=O)(=O)N4CCC(Nc5ccc(C(F)(F)F)cn5)CC4)cc3)cc2C1 [Example 1.054]
Second: O=c1[nH]c2ncc(-c3ccc(S(=O)(=O)N4CCC(Nc5ccc(C(F)(F)F)cn5)CC4)cc3)cc2o1 [Example 1.065]
The IC50 of the first is lower: less than 0.005 µM for the first, 0.005 to 0.1 µM for the second.

`O=C1NC(=O)C2(CCCN(c3ccc(S(=O)(=O)N4CCC(Nc5ccc(C(F)(F)F)cn5)CC4)cc3)C2)N1` (stereo not shown) [Example 1.224] and `N#Cc1n[nH]c2c1CN(c1ccc(S(=O)(=O)N3CCC(Nc4ccc(C(F)(F)F)cn4)CC3)cc1)CC2` [Example 1.207] fall in the same range of IC50: 0.1 to 10 µM for the first, 0.1 to 10 µM for the second.

First: NC(=O)N1CCC(c2ccc(S(=O)(=O)N3CCC(Nc4ccc(C(F)(F)F)cn4)CC3)cc2)CC1 [Example 1.216]
Second: CC(=O)NCC(=O)N1CCN(c2ccc(S(=O)(=O)N3CCC(Nc4ccc(C(F)(F)F)cn4)CC3)cc2)CC1 [Example 1.164]
The IC50 of the first is lower: 0.005 to 0.1 µM for the first, 0.1 to 10 µM for the second. The first is the more potent here.

`CC(C)(C)OC(=O)NCCN1C(=O)C2(CC2)c2cc(-c3ccc(S(=O)(=O)N4CCC(Nc5ccc(C(F)(F)F)cn5)CC4)cc3)cnc21` [Example 1.004] gave an IC50 of 0.005 to 0.1 µM.
